# Experiments:
# [1] = target: T1, S-layer protein SpaA (SpaASLH) (Paenibacillus alvei, UniProt C1JZ07); assay: co-crystal structure (no binding detected by ITC)
# T1 construct: SLH domain trimer, amino acids 21–193, Ser-Gly-Ser linker and C-terminal His6-tag
# T1 sequence (C1JZ07 21-193): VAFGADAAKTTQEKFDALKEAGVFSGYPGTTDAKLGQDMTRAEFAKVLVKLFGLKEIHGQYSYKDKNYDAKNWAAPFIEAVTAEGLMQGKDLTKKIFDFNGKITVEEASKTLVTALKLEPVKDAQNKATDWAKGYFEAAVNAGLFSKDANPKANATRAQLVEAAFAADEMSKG
# [2] = target: T2, S-layer protein SpaA (SpaASLH/G46A/G109A) (Paenibacillus alvei, UniProt C1JZ07, G46A/G109A); assay: co-crystal structure (no binding detected by ITC)
# T2 construct: SLH domain trimer, amino acids 21–193, Ser-Gly-Ser linker and C-terminal His6-tag
# T2 sequence (C1JZ07 21-193 G46A/G109A): T1 sequence (C1JZ07 21-193)
# [3] = target: T3, S-layer protein SpaA (SpaASLH/G109A) (Paenibacillus alvei, UniProt C1JZ07, G109A); assay: ITC and co-crystal structure; format: binding
# T3 construct: SLH domain trimer, amino acids 21–193, Ser-Gly-Ser linker and C-terminal His6-tag
# [4] = target: T1, S-layer protein SpaA (SpaASLH); assay: ITC and co-crystal structures; format: binding
Compound,co-crystal structure (no binding detected by ITC) [1],co-crystal structure (no binding detected by ITC) [2],Kd [3] [nM],Kd [4] [nM]
"CO[C@@H]1O[C@@H]2CO[C@](C)(C(=O)O)O[C@H]2[C@H](O[C@@H]2O[C@H](CO)[C@@H](O)[C@H](O)[C@H]2NC(C)=O)[C@@H]1NC(C)=O [disaccharide, β-D-GlcNAc-(1 → 3)-4,6-Pyr-β-D-ManNAcOMe]","Despite the lack of binding measured by ITC, a co-crystal structure with the internal disaccharide was obtained",–,–,–
"CO[C@@H]1O[C@@H]2CO[C@](C)(C(=O)O)O[C@H]2[C@H](O)[C@@H]1NC(C)=O [monosaccharide (M), 4,6-Pyr-β-D-ManNAcOMe]",–,"Despite the lack of binding detected by ITC, ligand is again observed bound in the G2 pocket",226,29

# Source: article PMC6081394, “Structural basis of cell wall anchoring by SLH domains in Paenibacillus alvei” (Nature Communications, 2018)
